Measurements: article PMC7708446, “^18F-meta-fluorobenzylguanidine (^18F-mFBG) to monitor changes in norepinephrine transporter expression in response to therapeutic intervention in neuroblastoma models” (Scientific Reports, 2020)

Assays:
[1] = target: T1, NET-1 (Homo sapiens, UniProt P23975); experiment: ^18F-mFBG / ^123I-mIBG uptake in NB cell lines with and without desipramine; assay type: cell-based; conditions: 1 h at 37 °C, rank among Kelly, SK-N-SH, NBLS
T1 construct: SK-N-SH, SK-N-BE(2)C, Kelly, NBLS human NB cell lines; endogenous in cells; host or cells: SK-N-SH, SK-N-BE(2)C, Kelly, NBLS human neuroblastoma cell lines
Excerpt: Figure 1 (a) Simplified radiosynthesis scheme of ^18F-mFBG by copper-mediated deborylation. (b) Total NET-1 protein expression in selected NB cell lines determined by Western blot. Full length blots are presented in Supplementary Figure WB1. […] Data are presented as mean ± SEM, n ≥ 2 per group, performed in triplicate. Graphs are generated using GraphPad Prism (v 8.4.1), https://www.graphpad.com.
For each cell line the cell-associated radioactivity was normalised to the number of cells and then each group was presented as a percentage of the signal acquired for SK-N-BE(2)C cells (mean of n = 3 independent experiments performed in triplicate ± SEM).

[2] = system: Kelly xenografts; experiment: Ex vivo biodistribution (γ-counter), mice bearing Kelly xenografts; assay type: in vivo; conditions: for ^18F-mFBG biodistribution 4 h p.i., Blood / ^18F-mFBG biodistribution 4 h p.i., Bone / ^18F-mFBG biodistribution 4 h p.i., Brown adipose / ^18F-mFBG biodistribution 4 h p.i., Heart / ^18F-mFBG biodistribution 4 h p.i., Kidney / ^18F-mFBG biodistribution 4 h p.i., Liver / ^18F-mFBG biodistribution 4 h p.i., Lungs / ^18F-mFBG biodistribution 4 h p.i., Muscle / ^18F-mFBG biodistribution 4 h p.i., Pancreas / ^18F-mFBG biodistribution 4 h p.i., Small intestine / ^18F-mFBG biodistribution 4 h p.i., Spleen / ^18F-mFBG biodistribution 4 h p.i., Tumour / ^18F-mFBG biodistribution 4 h p.i., Tumour:blood / ^18F-mFBG biodistribution 4 h p.i., Tumour:muscle: Kelly, 3 days
Procedure: All studies were conducted in compliance with licenses issued under the UK Animals (Scientific Procedures) Act 1986 and approved by the Institute of Cancer Research Animal Welfare and Ethical Review Body (AWERB) according to the United Kingdom National Cancer Research Institute Guidelines for Animal Welfare in Cancer Research (project license PCC916B22, Animals in Science Regulation Unit, Home Office Science, London, UK)[65]. Female Nu(NCr)-Foxn1nu mice (5–7 weeks; 20–22 g) obtained from an in-house breeding colony were used in the studies. Animals were housed in a temperature-controlled facility with 12 h on–12 h off light cycle and provided water and laboratory rodent food ad libitum. Subcutaneous xenografts were generated by injection of either Kelly (5 × 10^6/0.1 mL PBS/Matrigel 30% v/v; BD Matrigel Matrix, BD Bioscience, San Jose, California, US) or SK-N-BE(2)C (1 × 10^6/0.1 mL PBS/Matrigel) into the lower flank. For the treatment studies, AZD2014 stock solution in DMSO was diluted in PEG400 to a final concentration of 2 mg/mL (10% DMSO maximum). When tumours reached ~ 100 mm^3 (calliper measurements using formula: Volume = (Width(2) × Length)/2), mice were treated daily, for a total of either 1, 3 or 7 days, by oral gavage with AZD2014 (20 or 25 mg/kg/day) or vehicle control. Mice were monitored daily for body weight or other adverse effects.
(§1) When the tumours reached approximately 100–200 mm^3, mice were anaesthetised with an isoflurane/O2 mixture (1.5–2.0% v/v) and intravenously injected with either ^18F-mFBG (~ 7.5 MBq) or ^123I-mIBG (~ 20 MBq). Mice were then imaged using an Albira PET/SPECT/CT scanner (Bruker, Coventry, UK). Whole body PET static images were acquired after 1 and 4 h post-injection (p.i.) for 10 min with an energy window of 358 to 664 keV followed by CT acquisition. Acquisition, reconstruction and image analysis were performed as described previously. Following the final scan, the mice were sacrificed and the major organs were excised, weighed and their associated radioactivity was measured using a γ-counter. Biodistribution and image quantification were expressed as a percentage of injected dose per gram of tissue (%ID/g), whereby 1 cm^3 on PET acquisitions were assumed to equal 1 g (n ≥ 3 mice ± SD).

[3] = system: Kelly xenografts; experiment: PET quantification of tumour uptake, Kelly xenografts; assay type: in vivo, mice
Procedure: as §1

[4] = system: SK-N-BE(2)C xenografts; experiment: PET quantification of tumour uptake, SK-N-BE(2)C xenografts; assay type: in vivo, mice
Procedure: as §1

[5] = Biodistribution and PET statements pooled over Kelly and SK-N-BE(2)C xenograft-bearing mice; assay type: in vivo; conditions: 1 h p.i.
Procedure: as §1, with “Whole body PET static images were acquired after 1 and 4 h post-injection (p.i.) for 10 min with an energy window of 358 to 664 keV followed by CT acquisition.” left out

T1 sequence (P23975 whole entry): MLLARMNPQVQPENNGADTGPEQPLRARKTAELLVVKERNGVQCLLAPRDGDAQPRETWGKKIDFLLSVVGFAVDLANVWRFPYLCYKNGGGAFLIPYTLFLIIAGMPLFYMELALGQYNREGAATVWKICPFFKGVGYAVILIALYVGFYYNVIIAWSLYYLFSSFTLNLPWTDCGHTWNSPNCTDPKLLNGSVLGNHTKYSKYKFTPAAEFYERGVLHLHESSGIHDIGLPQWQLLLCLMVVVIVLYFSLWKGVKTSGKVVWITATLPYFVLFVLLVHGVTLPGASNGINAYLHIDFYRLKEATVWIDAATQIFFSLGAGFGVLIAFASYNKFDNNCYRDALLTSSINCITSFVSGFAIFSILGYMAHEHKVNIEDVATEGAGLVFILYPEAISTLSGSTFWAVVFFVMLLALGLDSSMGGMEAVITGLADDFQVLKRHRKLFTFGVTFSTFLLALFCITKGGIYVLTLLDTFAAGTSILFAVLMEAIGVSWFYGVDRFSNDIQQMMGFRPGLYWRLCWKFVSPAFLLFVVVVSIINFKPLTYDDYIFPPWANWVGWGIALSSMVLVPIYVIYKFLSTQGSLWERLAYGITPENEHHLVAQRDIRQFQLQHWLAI

In the case of N=C(N)NCc1cccc([18F])c1 [^18F-mFBG, ^18F-meta-fluorobenzylguanidine], the “cell-associated radioactivity, SK-N-BE(2)C” value [1] is reported as “greatest uptake”, the “cell-associated radioactivity, Kelly” value ([1]; SK-N-BE(2)C) is reported as “least uptake” and the tumour uptake ([2]; Kelly xenografts, 4 h p.i., n = 3) is reported as 0.30 ± 0.14 %ID/g. The “^18F-mFBG biodistribution 4 h p.i., Blood” value ([2]; AZD2014 (25 mg/kg/day)) was 0.19 ± 0.03 %ID/g, the “^18F-mFBG biodistribution 4 h p.i., Bone” value ([2]; AZD2014 (25 mg/kg/day)) was 0.99 ± 0.07 %ID/g and the “^18F-mFBG biodistribution 4 h p.i., Brown adipose” value ([2]; AZD2014 (25 mg/kg/day)) was 7.20 ± 0.88 %ID/g. For the same compound, the “^18F-mFBG biodistribution 4 h p.i., Heart” value ([2]; AZD2014 (25 mg/kg/day)) was 4.22 ± 0.85 %ID/g, the “^18F-mFBG biodistribution 4 h p.i., Kidney” value ([2]; AZD2014 (25 mg/kg/day)) was 0.97 ± 0.17 %ID/g and the “^18F-mFBG biodistribution 4 h p.i., Liver” value ([2]; AZD2014 (25 mg/kg/day)) was 2.08 ± 0.45 %ID/g. The “^18F-mFBG biodistribution 4 h p.i., Lungs” value ([2]; AZD2014 (25 mg/kg/day)) was 1.31 ± 0.39 %ID/g, the “^18F-mFBG biodistribution 4 h p.i., Muscle” value ([2]; AZD2014 (25 mg/kg/day)) was 0.64 ± 0.17 %ID/g and the “^18F-mFBG biodistribution 4 h p.i., Pancreas” value ([2]; AZD2014 (25 mg/kg/day)) was 1.25 ± 0.21 %ID/g. The “^18F-mFBG biodistribution 4 h p.i., Small intestine” value ([2]; AZD2014 (25 mg/kg/day)) was 7.30 ± 1.11 %ID/g, the “^18F-mFBG biodistribution 4 h p.i., Spleen” value ([2]; AZD2014 (25 mg/kg/day)) was 4.58 ± 0.77 %ID/g and the “^18F-mFBG biodistribution 4 h p.i., Tumour” value ([2]; AZD2014 (25 mg/kg/day)) was 0.74 ± 0.25 %ID/g. For the same compound, the “^18F-mFBG biodistribution 4 h p.i., Tumour:blood” value ([2]; AZD2014 (25 mg/kg/day)) was 4.16 ± 1.89, the “^18F-mFBG biodistribution 4 h p.i., Tumour:muscle” value ([2]; AZD2014 (25 mg/kg/day)) was 1.23 ± 0.61 and the “^18F-mFBG biodistribution 4 h p.i., Blood” value ([2]; Vehicle) was 0.22 ± 0.05 %ID/g. The “^18F-mFBG biodistribution 4 h p.i., Bone” value ([2]; Vehicle) was 1.43 ± 0.83 %ID/g, the “^18F-mFBG biodistribution 4 h p.i., Brown adipose” value ([2]; Vehicle) was 5.84 ± 2.44 %ID/g and the “^18F-mFBG biodistribution 4 h p.i., Heart” value ([2]; Vehicle) was 6.34 ± 1.41 %ID/g. The “^18F-mFBG biodistribution 4 h p.i., Kidney” value ([2]; Vehicle) was 1.11 ± 0.47 %ID/g, the “^18F-mFBG biodistribution 4 h p.i., Liver” value ([2]; Vehicle) was 2.37 ± 0.71 %ID/g and the “^18F-mFBG biodistribution 4 h p.i., Lungs” value ([2]; Vehicle) was 1.52 ± 0.22 %ID/g. The “^18F-mFBG biodistribution 4 h p.i., Muscle” value ([2]; Vehicle) was 0.74 ± 0.23 %ID/g, the “^18F-mFBG biodistribution 4 h p.i., Pancreas” value ([2]; Vehicle) was 1.26 ± 0.28 %ID/g and the “^18F-mFBG biodistribution 4 h p.i., Small intestine” value ([2]; Vehicle) was 6.57 ± 1.12 %ID/g. For the same compound, the “^18F-mFBG biodistribution 4 h p.i., Spleen” value ([2]; Vehicle) was 3.77 ± 0.82 %ID/g, the “^18F-mFBG biodistribution 4 h p.i., Tumour” value ([2]; Vehicle) was 0.39 ± 0.13 %ID/g and the “^18F-mFBG biodistribution 4 h p.i., Tumour:blood” value ([2]; Vehicle) was 1.75 ± 0.29. For the same compound, the “^18F-mFBG biodistribution 4 h p.i., Tumour:muscle” value ([2]; Vehicle) was 0.53 ± 0.01, the PET tumour uptake ([3]; 1 h p.i., n = 9) was 1.10 ± 0.34 %ID/g and the PET tumour uptake ([3]; 4 h p.i., n = 5) was 0.65 ± 0.29 %ID/g. For the same compound, the PET tumour uptake ([4]; 1 h p.i., n = 21) was 2.46 ± 0.71 %ID/g, the PET tumour uptake ([4]; 4 h p.i., n = 15) was 3.88 ± 1.15 %ID/g and the “radiotracer uptake, brown adipose tissue (BAT)” value [5] was over 7.0 %ID/g. For the same compound, the “radiotracer uptake, heart” value [5] was over 12.0 %ID/g and the “radiotracer uptake, small intestine” value [5] was ~ 8.0 %ID/g.
